# Measured values reported in ChEMBL document CHEMBL1649257, “Rapid detection of a point mutation in the parC gene associated with decreased susceptibility to fluoroquinolones in Mycoplasma bovis” (2009).
# How the values were obtained:
# Format in all cases: functional
# [1] = test system: Mycoplasmopsis bovis; assay: Antimicrobial activity against Mycoplasma bovis isolate PG45 harboring GyrA 83Ser and ParC 84Asp mutant by broth microdilution method
# [2] = test system: Mycoplasmopsis bovis; assay: Antimicrobial activity against Mycoplasma bovis isolate H harboring GyrA 83Ser and ParC 84Asp mutant by broth microdilution method
# [3] = test system: Mycoplasmopsis bovis; assay: Antimicrobial activity against Mycoplasma bovis isolate 6099 harboring GyrA 83Ser and ParC 84Asp mutant by broth microdilution method
# [4] = test system: Mycoplasmopsis bovis; assay: Antimicrobial activity against Mycoplasma bovis isolate 170 harboring GyrA 83Ser and ParC 84Asp mutant by broth microdilution method
# [5] = test system: Mycoplasmopsis bovis; assay: Antimicrobial activity against Mycoplasma bovis isolate 2029 harboring GyrA 83Phe and ParC 84Asp mutant by broth microdilution method
# [6] = test system: Mycoplasmopsis bovis; assay: Antimicrobial activity against Mycoplasma bovis isolate 3036 harboring GyrA 83Phe and ParC 84Asp mutant by broth microdilution method
# [7] = test system: Mycoplasmopsis bovis; assay: Antimicrobial activity against Mycoplasma bovis isolate K harboring GyrA 83Ser and ParC 84Asp mutant by broth microdilution method
# [8] = test system: Mycoplasmopsis bovis; assay: Antimicrobial activity against Mycoplasma bovis isolate 3222 harboring GyrA 83Ser and ParC 84Asp mutant by broth microdilution method
# [9] = test system: Mycoplasmopsis bovis; assay: Antimicrobial activity against Mycoplasma bovis isolate 2643 harboring GyrA 83Phe and ParC 84Asp mutant by broth microdilution method
# [10] = test system: Mycoplasmopsis bovis; assay: Antimicrobial activity against Mycoplasma bovis isolate 1416 harboring GyrA 83Phe and ParC 84Asp mutant by broth microdilution method
# [11] = test system: Mycoplasmopsis bovis; assay: Antimicrobial activity against Mycoplasma bovis isolate 861 harboring GyrA 83Ser and ParC 84Asp mutant by broth microdilution method
# [12] = test system: Mycoplasmopsis bovis; assay: Antimicrobial activity against Mycoplasma bovis isolate 1665 harboring GyrA 83Phe and ParC 84Asn mutant by broth microdilution method
# [13] = test system: Mycoplasmopsis bovis; assay: Antimicrobial activity against Mycoplasma bovis isolate 2D harboring GyrA 83Ser and ParC 84Asp mutant by broth microdilution method
# [14] = test system: Mycoplasmopsis bovis; assay: Antimicrobial activity against Mycoplasma bovis isolate 111-2 harboring GyrA 83Ser and ParC 84Asp mutant by broth microdilution method
# [15] = test system: Mycoplasmopsis bovis; assay: Antimicrobial activity against Mycoplasma bovis isolate 962 harboring GyrA 83Phe and ParC 84Asn mutant by broth microdilution method
# [16] = test system: Mycoplasmopsis bovis; assay: Antimicrobial activity against Mycoplasma bovis isolate 1972 harboring GyrA 83Phe and ParC 84Asn mutant by broth microdilution method
# [17] = test system: Mycoplasmopsis bovis; assay: Antimicrobial activity against Mycoplasma bovis isolate 4879 harboring GyrA 83Phe and ParC 84Asn mutant by broth microdilution method
# [18] = test system: Mycoplasmopsis bovis; assay: Antimicrobial activity against Mycoplasma bovis isolate 9771 harboring GyrA 83Phe and ParC 84Asn mutant by broth microdilution method
# [19] = test system: Mycoplasmopsis bovis; assay: Antimicrobial activity against Mycoplasma bovis isolate 2458 harboring GyrA 83Phe and ParC 84Asp mutant by broth microdilution method
# [20] = test system: Mycoplasmopsis bovis; assay: Antimicrobial activity against Mycoplasma bovis isolate 77 harboring GyrA 83Phe and ParC 84Asp mutant by broth microdilution method
# [21] = test system: Mycoplasmopsis bovis; assay: Antimicrobial activity against Mycoplasma bovis isolate 4243 harboring GyrA 83Phe and ParC 84Asn mutant by broth microdilution method
# [22] = test system: Mycoplasmopsis bovis; assay: Antimicrobial activity against Mycoplasma bovis isolate 476-2 harboring GyrA 83Ser and ParC 84Asp mutant by broth microdilution method
# [23] = test system: Mycoplasmopsis bovis; assay: Antimicrobial activity against Mycoplasma bovis isolate 4554 harboring GyrA 83Ser and ParC 84Asp mutant by broth microdilution method
# [24] = test system: Mycoplasmopsis bovis; assay: Antimicrobial activity against Mycoplasma bovis isolate 5848 harboring GyrA 83Phe and ParC 84Asp mutant by broth microdilution method
# [25] = test system: Mycoplasmopsis bovis; assay: Antimicrobial activity against Mycoplasma bovis isolate 8998 harboring GyrA 83Ser and ParC 84Asp mutant by broth microdilution method
# [26] = test system: Mycoplasmopsis bovis; assay: Antimicrobial activity against Mycoplasma bovis isolate 1306 harboring GyrA 83Phe and ParC 84Asp mutant by broth microdilution method
# [27] = test system: Mycoplasmopsis bovis; assay: Antimicrobial activity against Mycoplasma bovis isolate 6226 harboring GyrA 83Ser and ParC 84Asp mutant by broth microdilution method
# [28] = test system: Mycoplasmopsis bovis; assay: Antimicrobial activity against Mycoplasma bovis isolate 7043 harboring GyrA 83Phe and ParC 84Asp mutant by broth microdilution method
# [29] = test system: Mycoplasmopsis bovis; assay: Antimicrobial activity against Mycoplasma bovis isolate 3179 harboring GyrA 83Phe and ParC 84Asp mutant by broth microdilution method
# [30] = test system: Mycoplasmopsis bovis; assay: Antimicrobial activity against Mycoplasma bovis isolate 5180 harboring GyrA 83Ser and ParC 84Asp mutant by broth microdilution method
# [31] = test system: Mycoplasmopsis bovis; assay: Antimicrobial activity against Mycoplasma bovis isolate 330 harboring GyrA 83Ser and ParC 84Asp mutant by broth microdilution method
# [32] = test system: Mycoplasmopsis bovis; assay: Antimicrobial activity against Mycoplasma bovis isolate 8934 harboring GyrA 83Ser and ParC 84Asp mutant by broth microdilution method
# [33] = test system: Mycoplasmopsis bovis; assay: Antimicrobial activity against Mycoplasma bovis isolate 4925 harboring GyrA 83Ser and ParC 84Asn mutant by broth microdilution method
# [34] = test system: Mycoplasmopsis bovis; assay: Antimicrobial activity against Mycoplasma bovis isolate 7910 harboring GyrA 83Ser and ParC 84Asp mutant by broth microdilution method
# [35] = test system: Mycoplasmopsis bovis; assay: Antimicrobial activity against Mycoplasma bovis isolate 523 harboring GyrA 83Phe and ParC 84Asn mutant by broth microdilution method
# [36] = test system: Mycoplasmopsis bovis; assay: Antimicrobial activity against Mycoplasma bovis isolate 9249 harboring GyrA 83Ser and ParC 84Asp mutant by broth microdilution method
# [37] = test system: Mycoplasmopsis bovis; assay: Antimicrobial activity against Mycoplasma bovis isolate 3374 harboring GyrA 83Phe and ParC 84Asp mutant by broth microdilution method
# [38] = test system: Mycoplasmopsis bovis; assay: Antimicrobial activity against Mycoplasma bovis isolate 2670 harboring GyrA 83Ser and ParC 84Asp mutant by broth microdilution method
# [39] = test system: Mycoplasmopsis bovis; assay: Antimicrobial activity against Mycoplasma bovis isolate 4241 harboring GyrA 83Phe and ParC 84Asn mutant by broth microdilution method
# [40] = test system: Mycoplasmopsis bovis; assay: Antimicrobial activity against Mycoplasma bovis isolate 9603 harboring GyrA 83Ser and ParC 84Asp mutant by broth microdilution method
# [41] = test system: Mycoplasmopsis bovis; assay: Antimicrobial activity against Mycoplasma bovis isolate 3181 harboring GyrA 83Phe and ParC 84Asn mutant by broth microdilution method
# [42] = test system: Mycoplasmopsis bovis; assay: Antimicrobial activity against Mycoplasma bovis isolate 2E harboring GyrA 83Ser and ParC 84Asp mutant by broth microdilution method
# [43] = test system: Mycoplasmopsis bovis; assay: Antimicrobial activity against Mycoplasma bovis isolate 8830 harboring GyrA 83Phe and ParC 84Asn mutant by broth microdilution method
smiles,measurement,setting,value
CCN1CCN(c2cc3c(cc2F)c(=O)c(C(=O)O)cn3C2CC2)CC1 [ENROFLOXACIN],MIC,[1],0.16 µg/mL
same,MIC,[2],0.16 µg/mL
same,MIC,[3],0.16 µg/mL
same,MIC,[4],0.63 µg/mL
same,MIC,[5],0.32 µg/mL
same,MIC,[6],1.25 µg/mL
same,MIC,[7],0.16 µg/mL
same,MIC,[8],0.16 µg/mL
same,MIC,[9],1.25 µg/mL
same,MIC,[10],0.32 µg/mL
same,MIC,[11],0.08 µg/mL
same,MIC,[12],2.5 µg/mL
same,MIC,[13],0.16 µg/mL
same,MIC,[14],0.16 µg/mL
same,MIC,[15],5 µg/mL
same,MIC,[16],2.5 µg/mL
same,MIC,[17],5 µg/mL
same,MIC,[18],5 µg/mL
same,MIC,[19],1.25 µg/mL
same,MIC,[20],0.63 µg/mL
same,MIC,[21],2.5 µg/mL
same,MIC,[22],0.16 µg/mL
same,MIC,[23],0.16 µg/mL
same,MIC,[24],1.25 µg/mL
same,MIC,[25],0.08 µg/mL
same,MIC,[26],1.25 µg/mL
same,MIC,[27],0.32 µg/mL
same,MIC,[28],0.32 µg/mL
same,MIC,[29],0.63 µg/mL
same,MIC,[30],0.16 µg/mL
same,MIC,[31],0.08 µg/mL
same,MIC,[32],0.32 µg/mL
same,MIC,[33],2.5 µg/mL
same,MIC,[34],0.32 µg/mL
same,MIC,[35],2.5 µg/mL
same,MIC,[36],0.16 µg/mL
same,MIC,[37],1.25 µg/mL
same,MIC,[38],0.08 µg/mL
same,MIC,[39],2.5 µg/mL
same,MIC,[40],0.16 µg/mL
same,MIC,[41],2.5 µg/mL
same,MIC,[42],0.16 µg/mL
same,MIC,[43],5 µg/mL
